Data published in ChEMBL document CHEMBL5523716, “Discovery of novel EGFR-PROTACs capable of degradation of multiple EGFR-mutated proteins” (Eur J Med Chem, 2024).

Experiments:
[1] = system: von Hippel-Lindau disease tumor suppressor/Epidermal growth factor receptor (Homo sapiens), P00533+P40337 [L858R,T790M]; assay: PROTAC activity at VHL/EGFR L858R/T790M mutant in human NCI-H1975 cells assessed as maximal EGFR degradation at 0.15 to 10 uM incubated for 72 hrs by Western blot analysis relative to control; assay type: cell-based; conditions: dose 0.15-10 µM
Chain of von Hippel-Lindau disease tumor suppressor/Epidermal growth factor receptor (Homo sapiens), P00533+P40337 [L858R,T790M] (P00533 whole entry T790M/L858R): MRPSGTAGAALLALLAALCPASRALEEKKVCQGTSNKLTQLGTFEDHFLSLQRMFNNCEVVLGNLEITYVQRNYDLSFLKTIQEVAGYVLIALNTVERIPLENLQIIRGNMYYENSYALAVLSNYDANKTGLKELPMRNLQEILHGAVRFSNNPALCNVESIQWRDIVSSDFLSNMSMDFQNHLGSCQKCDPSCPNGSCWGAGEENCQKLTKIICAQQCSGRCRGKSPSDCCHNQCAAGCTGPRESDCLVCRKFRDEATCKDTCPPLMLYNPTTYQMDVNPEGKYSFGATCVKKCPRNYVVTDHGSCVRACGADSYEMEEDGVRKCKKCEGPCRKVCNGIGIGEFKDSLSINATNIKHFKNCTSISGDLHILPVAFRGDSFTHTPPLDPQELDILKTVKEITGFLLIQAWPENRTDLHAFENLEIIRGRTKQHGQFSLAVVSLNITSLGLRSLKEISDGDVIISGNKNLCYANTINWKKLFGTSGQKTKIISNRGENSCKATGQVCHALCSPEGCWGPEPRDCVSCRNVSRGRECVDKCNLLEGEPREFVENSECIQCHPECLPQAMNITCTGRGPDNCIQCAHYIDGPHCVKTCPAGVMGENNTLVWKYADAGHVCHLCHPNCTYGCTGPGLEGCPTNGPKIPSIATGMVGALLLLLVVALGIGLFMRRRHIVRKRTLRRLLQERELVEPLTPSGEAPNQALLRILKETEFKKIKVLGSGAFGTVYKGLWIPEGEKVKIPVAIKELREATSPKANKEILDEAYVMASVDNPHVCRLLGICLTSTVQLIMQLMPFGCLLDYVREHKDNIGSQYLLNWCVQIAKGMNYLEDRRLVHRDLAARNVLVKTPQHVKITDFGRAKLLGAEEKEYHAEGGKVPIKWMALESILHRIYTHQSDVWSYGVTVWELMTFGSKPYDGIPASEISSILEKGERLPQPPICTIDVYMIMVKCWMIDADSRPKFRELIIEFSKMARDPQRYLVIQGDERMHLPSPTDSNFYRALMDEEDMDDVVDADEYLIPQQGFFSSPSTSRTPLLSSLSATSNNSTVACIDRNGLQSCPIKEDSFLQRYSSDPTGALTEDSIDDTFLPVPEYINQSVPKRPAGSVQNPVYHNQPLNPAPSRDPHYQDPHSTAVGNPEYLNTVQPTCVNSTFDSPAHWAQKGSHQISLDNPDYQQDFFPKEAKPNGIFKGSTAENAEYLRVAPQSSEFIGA
Chain of von Hippel-Lindau disease tumor suppressor/Epidermal growth factor receptor (Homo sapiens), P00533+P40337 [L858R,T790M] (P40337 whole entry partner): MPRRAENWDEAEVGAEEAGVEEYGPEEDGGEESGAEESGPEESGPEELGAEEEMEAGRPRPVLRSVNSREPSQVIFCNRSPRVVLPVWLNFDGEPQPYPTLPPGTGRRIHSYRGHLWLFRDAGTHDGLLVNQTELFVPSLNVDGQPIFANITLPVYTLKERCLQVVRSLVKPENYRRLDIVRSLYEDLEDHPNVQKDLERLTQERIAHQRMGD

[2] = system: von Hippel-Lindau disease tumor suppressor/Epidermal growth factor receptor (Homo sapiens), P00533+P40337 [UNDEFINED MUTATION]; assay: PROTAC activity at VHL/EGFR Del19 mutant in human HCC827 cells assessed as maximal EGFR degradation at 3.125 to 200 nM incubated for 72 hrs by Western blot analysis relative to control; assay type: cell-based; conditions: dose 3.125-200 nM
Chain of von Hippel-Lindau disease tumor suppressor/Epidermal growth factor receptor (Homo sapiens), P00533+P40337 [UNDEFINED MUTATION] (P00533 whole entry, looked up, stated change not applied): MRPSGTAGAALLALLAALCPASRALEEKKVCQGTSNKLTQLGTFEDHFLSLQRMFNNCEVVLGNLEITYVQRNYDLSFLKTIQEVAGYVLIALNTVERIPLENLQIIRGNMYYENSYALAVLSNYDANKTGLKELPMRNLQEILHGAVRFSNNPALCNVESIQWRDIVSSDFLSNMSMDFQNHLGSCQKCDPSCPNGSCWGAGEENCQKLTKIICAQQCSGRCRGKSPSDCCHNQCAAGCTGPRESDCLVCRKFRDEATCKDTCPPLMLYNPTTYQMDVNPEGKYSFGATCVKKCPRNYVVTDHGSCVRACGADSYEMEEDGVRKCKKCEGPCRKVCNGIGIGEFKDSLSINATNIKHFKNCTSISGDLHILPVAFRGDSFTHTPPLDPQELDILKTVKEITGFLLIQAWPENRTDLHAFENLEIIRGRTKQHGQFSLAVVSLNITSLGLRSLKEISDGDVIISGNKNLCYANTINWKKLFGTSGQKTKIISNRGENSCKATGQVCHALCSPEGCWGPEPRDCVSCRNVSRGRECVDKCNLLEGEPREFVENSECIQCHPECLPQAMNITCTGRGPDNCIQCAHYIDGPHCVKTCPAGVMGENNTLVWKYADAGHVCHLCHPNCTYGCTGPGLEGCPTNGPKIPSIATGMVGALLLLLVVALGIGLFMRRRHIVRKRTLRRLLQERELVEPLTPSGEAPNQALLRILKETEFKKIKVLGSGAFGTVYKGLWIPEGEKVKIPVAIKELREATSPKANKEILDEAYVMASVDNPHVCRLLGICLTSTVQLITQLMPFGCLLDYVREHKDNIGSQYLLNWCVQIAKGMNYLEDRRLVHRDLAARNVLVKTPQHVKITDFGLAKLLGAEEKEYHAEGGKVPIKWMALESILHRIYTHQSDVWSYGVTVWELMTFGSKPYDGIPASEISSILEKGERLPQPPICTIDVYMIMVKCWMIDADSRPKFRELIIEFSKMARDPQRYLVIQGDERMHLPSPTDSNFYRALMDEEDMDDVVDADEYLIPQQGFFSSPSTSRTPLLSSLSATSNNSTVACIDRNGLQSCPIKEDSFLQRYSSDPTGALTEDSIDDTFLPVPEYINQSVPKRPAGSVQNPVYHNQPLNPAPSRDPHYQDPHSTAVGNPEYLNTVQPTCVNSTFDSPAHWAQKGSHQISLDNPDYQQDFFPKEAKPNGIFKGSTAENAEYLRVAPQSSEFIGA
Chain of von Hippel-Lindau disease tumor suppressor/Epidermal growth factor receptor (Homo sapiens), P00533+P40337 [UNDEFINED MUTATION] (P40337 whole entry, looked up, stated change not applied): as the sequence (P40337 whole entry partner) above

[3] = Antiproliferative activity against human H1975-TM cells harboring EGFR L858R/T790M/C797S mutant assessed as inhibition of cell growth incubated for 48 to 72 hrs by CCK-8 assay; assay type: functional, cell-based
HCC827 = assay: Antiproliferative activity against human HCC827 cells harboring EGFR Del19 mutant assessed as inhibition of cell growth incubated for 48 to 72 hrs by CCK-8 assay; assay type: functional, cell-based
A549 = assay: Antiproliferative activity against human A549 cells harboring EGFR wild type assessed as inhibition of cell growth incubated for 48 to 72 hrs by CCK-8 assay; assay type: functional, cell-based
[4] = target: von Hippel-Lindau disease tumor suppressor/Epidermal growth factor receptor (Homo sapiens, UniProt P00533+P40337); assay: PROTAC activity at VHL/EGFR Del19 mutant in human HCC827 cells assessed as induction of EGFR degradation incubated for 72 hrs by Western blot analysis; assay type: cell-based
Chain of von Hippel-Lindau disease tumor suppressor/Epidermal growth factor receptor (Homo sapiens, UniProt P00533+P40337) (P00533 whole entry, looked up, stated change not applied): as the sequence (P00533 whole entry, looked up, stated change not applied) above
Chain of von Hippel-Lindau disease tumor suppressor/Epidermal growth factor receptor (Homo sapiens, UniProt P00533+P40337) (P40337 whole entry, looked up, stated change not applied): as the sequence (P40337 whole entry partner) above

NCI-H1975 = assay: Antiproliferative activity against human NCI-H1975 cells harboring EGFR L858R/T790M double mutant assessed as inhibition of cell growth incubated for 48 to 72 hrs by CCK-8 assay; assay type: functional, cell-based
[5] = target: von Hippel-Lindau disease tumor suppressor/Epidermal growth factor receptor (Homo sapiens, UniProt P00533+P40337, T790M/L858R); assay: PROTAC activity at VHL/EGFR L858R/T790M mutant in human NCI-H1975 cells assessed as induction of EGFR degradation incubated for 72 hrs by Western blot analysis; assay type: cell-based
A-431 = assay: Antiproliferative activity against human A-431 cells harboring EGFR wild type assessed as inhibition of cell growth incubated for 48 to 72 hrs by CCK-8 assay; assay type: functional, cell-based

CCN(CC)C/C=C/C(=O)Nc1cc2c(Nc3ccc(F)c(Cl)c3)ncnc2cc1OCc1cn(CCCCCCCCCCC(=O)N[C@H](C(=O)N2C[C@H](O)C[C@H]2C(=O)NCc2ccc(-c3scnc3C)cc2)C(C)(C)C)nn1
Emax [1]: 93% | Emax [2]: 99% | IC50 [3]: > 20000 nM | IC50 (HCC827): 15 nM | IC50 (A549): > 20000 nM | DC50 [4]: 28.7 nM | IC50 (NCI-H1975): 380 nM | DC50 [5]: 380 nM | IC50 (A-431): > 20000 nM
